Experimental findings from patent publication EP1345943B1, “INHIBITORS OF PAPILLOMA VIRUS” (BOEHRINGER INGELHEIM (CANADA) LTD., priority 2000, dated 2002) are described below.

The assay deals with E1-E2-DNA complex (Human papillomavirus 11, UniProt P04015). Briefly: E2-dependent E1 DNA binding assay (E1-E2 DNA assay). As to conditions: E1-E2 DNA assay of Example 11, HPV-11. The method, then:
This particular assay determines the ability of a test compound to inhibit the activity (IC50) of HPV-11 DNA replication. More specifically, in the assay described herein, the inhibitory activity of the test compound is evaluated based on its ability to interfere with the E1-E2-DNA origin of replication interaction, thereby inhibiting initiation of viral DNA replication.
This assay was modeled on a similar assay for SV40 T Antigen described by McKay (J. Mol. Biol., 1981,145:471). A 400bp radiolabeled DNA probe, containing the -HPV-11 origin of replication (Chiang et al.., 1992, Proc. Natl.-Acad. Sci. USA 89:5799) was produced by pcr, using plasmid pBluescript™ SK encoding the origin (nucleotides 7886-61 of the HPV-11 genome in unique BAMH1 site) as template and primers flanking the origin. Radiolabel was incorporated as [33p]dCTP. Binding assay buffer consisted of: 20 mM Tris pH 7.6, 100 mM NaCI, 1 mM DTT, 1 mM EDTA.
Other reagents used were protein A-SPA beads (type II, Amersham) and K72 rabbit polyclonal antiserum, raised against a peptide corresponding to the C-terminal 14 amino acids of HPV-11 E1. Following the protocol from Amersham, one bottle of beads was mixed with 25 mL of binding assay buffer. For the assay, a saturating amount of K72 antiserum was added to the beads and the mixture was incubated for 1 h, washed with one volume of binding assay buffer, and then resuspended in the same volume of fresh binding assay buffer. Binding reactions contained 8 ng of E2, approximately 100-200 ng of purified E1, and 0.4 ng of radiolabeled probe in a total of 80 µL of binding assay buffer. After 1 h at room temperature, 25 µL of K72 antibody-SPA bead suspension was added to with the binding reaction and mixed. After an additional hour of incubation at room temperature, the reactions were centrifuged briefly to pellet the beads and the extent of complex formation was determined by scintillation counting on a Packard TopCount™. Typically, the signal for reactions containing E1 and E2 was 20-30 fold higher than the background observed when either E1, E2, or both was omitted.

Molecules are shown by their SMILES. Some results are limits rather than exact numbers.

Sequence of E1-E2-DNA complex (P04015 whole entry, one chain of several): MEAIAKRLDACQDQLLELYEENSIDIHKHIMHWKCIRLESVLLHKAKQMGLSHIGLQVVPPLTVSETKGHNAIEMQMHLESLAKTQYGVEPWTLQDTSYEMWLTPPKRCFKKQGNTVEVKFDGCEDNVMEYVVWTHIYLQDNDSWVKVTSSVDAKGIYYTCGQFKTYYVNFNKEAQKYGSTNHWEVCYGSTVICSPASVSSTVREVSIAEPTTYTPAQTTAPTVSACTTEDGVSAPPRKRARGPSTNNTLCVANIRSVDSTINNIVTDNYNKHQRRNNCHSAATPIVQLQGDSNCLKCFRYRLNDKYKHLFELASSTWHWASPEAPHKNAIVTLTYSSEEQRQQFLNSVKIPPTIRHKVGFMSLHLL

For `O=C(Nc1ccc2c(c1)OCO2)C1C(c2ccc(Cl)c(Cl)c2)OC2(C(=O)c3cccc(F)c3C2=O)C1C(=O)O` (centres unmarked) [Compound 1048], the IC50 – broadly, the concentration at which inhibition is half-maximal – fell in the range of 0.5 to 5 µM.

Take `[N-]=[N+]=Nc1c(F)c(F)c(CNC(=O)C2C(c3ccc(Cl)c(Cl)c3)OC34C(=O)c5ccccc5C3(O)OC(=O)C24)c(F)c1F` (racemic) [Compound 3008]: the concentration for half-maximal inhibition (IC50) lay in the range of 5 to 50 µM.

`CC(=O)c1ccc(NC(=O)C2C(C=Cc3ccccc3C)OC3(C(=O)c4ccccc4C3=O)C2C(=O)O)cc1` (centres unmarked) [Compound 4011] gave an IC50 of 5 to 50 µM.

In turn, `O=C(Nc1ccc2c(c1)CCC2)C1C(c2ccc(Cl)cc2)OC2(C(=O)c3ccccc3C2=O)C1C(=O)O` (centres unmarked) [Compound 1013] had an IC50 of 5 to 50 µM.

For `CC(=O)c1ccc(NC(=O)C2C(c3ccc(Cl)c(Cl)c3)OC3(C(=O)c4ccc(F)cc4C3=O)C2C(=O)O)cc1` (centres unmarked) [Compound 1106], the IC50 lay in the range of 0.5 to 5 µM.

In turn, `O=C(Nc1cc2c(cc1[N+](=O)[O-])OCO2)C1C(c2ccc(Cl)c(Cl)c2)OC2(C(=O)c3ccccc3C2=O)C1C(=O)O` (centres unmarked) [Compound 1117] showed an IC50 of 0.5 to 5 µM.

Consider `O=C(Nc1ccc(Cl)c(Cl)c1)C1C(c2ccc(Br)c(Br)c2)OC2(C(=O)c3ccccc3C2=O)C1C(=O)O` (centres unmarked) [Compound 1134], for which the IC50 was less than 0.5 µM.

Turning to `CC(NC(=O)C1C(c2ccc(Cl)c(Cl)c2)OC23C(=O)c4ccccc4C2(O)OC(=O)C13)c1ccccc1` (racemic) [Compound 3007], the IC50 fell in the range of 5 to 50 µM.

In turn, `Cc1cc2c(s1)C1(O)OC(=O)C3C(C(=O)Nc4ccc(N5CCOCC5)cc4)C(c4ccc(Br)c(Br)c4)OC31C2=O` (single isomer, unassigned) [Compound D1002] yielded a concentration for half-maximal inhibition (IC50) of less than 0.5 µM.

`O=C1C2C(c3ccc(Cl)cc3)OC3(C(=O)c4ccccc4C3=O)C2C(=O)N1c1cccc(Cl)c1` (centres unmarked) [Compound 2009] yielded a 50% inhibitory concentration (IC50) of 5 to 50 µM.

As for `O=C(Nc1ccc(Br)c(Cl)c1)C1C(c2ccc(F)c(Cl)c2)OC2(C(=O)c3ccccc3C2=O)C1C(=O)O` (centres unmarked) [Compound 1121], the half-maximal inhibitory concentration (IC50) lay within 0.5 to 5 µM.

`O=C(Nc1ccc2c(c1)OCO2)C1C(c2ccc(Cl)c(Cl)c2)OC2(C(=O)c3ccccc3C2=O)C1C(=O)O` (racemic) [Compound 5001] had an IC50 of 0.5 to 5 µM.

In turn, `O=C(Nc1ccc2c(c1)OCO2)C1C(c2ccc(Cl)cc2)OC23C(=O)c4ccccc4C2(O)OC(=O)C13` (racemic) [Compound 3005] yielded a concentration for half-maximal inhibition (IC50) of 5 to 50 µM.

In turn, `CC(=O)c1ccc(NC(=O)C2C(c3ccc(Cl)c(Cl)c3)OC34C(=O)c5ccccc5C3(O)OC(=O)C24)cc1` (racemic) [Compound 3009] registered a concentration for half-maximal inhibition (IC50) of less than 0.5 µM.

Compound `CC(=O)c1ccc(NC(=O)C2C(c3ccc(Br)c(Br)c3)OC3(C(=O)c4ccccc4C3=O)C2C(=O)O)cc1` (racemic) [Compound 1027] registered an IC50 of less than 0.5 µM.

The compound `Cc1ccc2c(c1)C(=O)C1(OC(c3ccc(Cl)c(Cl)c3)C(C(=O)Nc3ccc4c(c3)OCO4)C1C(=O)O)C2=O` (single isomer, unassigned) [Compound A1004] displayed an IC50 of 5 to 50 µM.

Compound `Cc1ccc(N2C(=O)C3C(c4ccc(Cl)cc4)OC4(C(=O)c5ccccc5C4=O)C3C2=O)cc1` (centres unmarked) [Compound 2006] had an IC50 of 5 to 50 µM.

Turning to `O=C(NCCc1cccs1)C1C(c2ccc(Cl)c(Cl)c2)OC2(C(=O)c3ccccc3C2=O)C1C(=O)O` (centres unmarked) [Compound 1138], the concentration for half-maximal inhibition (IC50) is less than 0.5 µM.

For `O=C(Nc1ccc2c(c1)OCO2)C1C(c2ccc3ccccc3c2)OC2(C(=O)c3ccccc3C2=O)C1C(=O)O` (centres unmarked) [Compound 4001], the concentration for half-maximal inhibition (IC50) lay in the range of 0.5 to 5 µM.

`Cc1cc2c(s1)C(=O)C13OC(c4ccc(Br)c(Br)c4)C(C(=O)Nc4ccc(CNC(=O)OC(C)(C)C)cc4)C1C(=O)OC23O` (centres unmarked) [Compound C1003] gave an IC50 of 0.5 to 5 µM.

The compound `O=C(Nc1ccc2c(c1)OCO2)C1C(c2ccc(F)c(Cl)c2)OC2(C(=O)c3ccccc3C2=O)C1C(=O)O` (centres unmarked) [Compound 1030] had an IC50 of 0.5 to 5 µM.

`O=C(Nc1ccccc1)C1C(c2ccc(F)c(F)c2)OC2(C(=O)c3ccccc3C2=O)C1C(=O)O` (centres unmarked) [Compound 1068] gave an IC50 of 5 to 50 µM.

`O=C(NN1CCOCC1)C1C(c2ccc(F)c(Cl)c2)OC2(C(=O)c3ccccc3C2=O)C1C(=O)O` (centres unmarked) [Compound 1093] showed a 50% inhibitory concentration (IC50) of 5 to 50 µM.

Consider `O=C(Nc1ccc2c(c1)OCO2)C1C(c2cc(Cl)cc(Cl)c2)OC2(C(=O)c3ccccc3C2=O)C1C(=O)O` (centres unmarked) [Compound 1020], for which the IC50 fell in the range of 5 to 50 µM.

In the case of `O=C1C2C(c3ccc(Cl)cc3)OC3(C(=O)c4ccccc4C3=O)C2C(=O)N1c1ccc(C(F)(F)F)cc1` (centres unmarked) [Compound 2015], the half-maximal inhibitory concentration (IC50) fell in the range of 5 to 50 µM.

As for `O=C(Nc1ccccc1OC(F)(F)F)C1C(c2ccc(Cl)c(Cl)c2)OC2(C(=O)c3ccccc3C2=O)C1C(=O)O` (centres unmarked) [Compound 1139], the concentration for half-maximal inhibition (IC50) is 0.5 to 5 µM.

On to `O=C(Nc1ccccc1Cl)C1C(c2ccc(Cl)c(Cl)c2)OC2(C(=O)c3ccccc3C2=O)C1C(=O)O` (centres unmarked) [Compound 1123], for which the IC50 is less than 0.5 µM.

On to `O=C(Nc1cccc(Cl)c1)C1C(c2ccc(Br)c(Br)c2)OC2(C(=O)c3ccccc3C2=O)C1C(=O)O` (centres unmarked) [Compound 1119], for which the IC50 was less than 0.5 µM.

For `O=C(Nc1ccc2c(c1)OCO2)C1C(c2cc(Cl)cc(Cl)c2)OC23C(=O)c4ccccc4C2(O)OC(=O)C13` (racemic) [Compound 3001], the half-inhibitory concentration (IC50) lay within 0.5 to 5 µM.

The compound `O=C(NC1CCCCC1)C1C(c2ccc(Cl)cc2)OC23C(=O)c4ccccc4C2(O)OC(=O)C13` (racemic) [Compound 3002] had a concentration for half-maximal inhibition (IC50) of 5 to 50 µM.

On to `O=C(NC1CCCCC1)C1C(c2ccc(Cl)c(Cl)c2)OC2(C(=O)c3ccccc3C2=O)C1C(=O)O` (centres unmarked) [Compound 1082], for which the IC50 lay within 0.5 to 5 µM.

Consider `CCOc1ccccc1NC(=O)C1C(c2ccc(Cl)c(Cl)c2)OC2(C(=O)c3ccccc3C2=O)C1C(=O)O` (centres unmarked) [Compound 1136], for which the IC50 was 5 to 50 µM.

As to `O=C1C2C(c3ccc(Cl)c(Cl)c3)OC3(C(=O)c4ccccc4C3=O)C2C(=O)N1c1ccc2c(c1)OCO2` (racemic) [Compound 2013], the IC50 was 0.5 to 5 µM.

Consider `CC(=O)c1ccc(NC(=O)C2C(c3cccc(Cl)c3)OC3(C(=O)c4ccccc4C3=O)C2C(=O)O)cc1` (centres unmarked) [Compound 1032], for which the half-inhibitory concentration (IC50) is 0.5 to 5 µM.

Compound `O=C(Nc1ccc2c(c1)OCO2)C1C(c2cccc(Cl)c2)OC2(C(=O)c3ccccc3C2=O)C1C(=O)O` (centres unmarked) [Compound 1015] showed an IC50 of 0.5 to 5 µM.

`CC(=O)Nc1ccc(NC(=O)C2C(c3ccc(Cl)c(Cl)c3)OC3(C(=O)c4ccccc4C3=O)C2C(=O)O)cc1` (centres unmarked) [Compound 1108] had an IC50 of 0.5 to 5 µM.

As for `CCCCC(=O)Nc1cc(C2OC3(C(=O)c4ccccc4C3=O)C(C(=O)O)C2C(=O)Nc2ccc(C(C)=O)cc2)ccc1Cl` (centres unmarked) [Compound 1141], the IC50 fell in the range of 0.5 to 5 µM.

In turn, `CC(=O)Nc1ccc(NC(=O)C2C(c3ccc(Cl)c(Cl)c3)OC3(C(=O)c4ccccc4C3=O)C2C(=O)O)cc1` (centres unmarked) [Compound 1035] gave a half-maximal inhibitory concentration (IC50) of less than 0.5 µM.

On to `Cc1ccc2c(c1)C(=O)C1(OC(c3ccc(Cl)c(Cl)c3)C(C(=O)Nc3ccc4c(c3)OCO4)C1C(=O)O)C2=O` (centres unmarked) [Compound 1037], for which the IC50 was in the range of 0.5 to 5 µM.

In the case of `O=C(NCCc1ccccc1)C1C(c2ccc(F)c(Cl)c2)OC2(C(=O)c3ccccc3C2=O)C1C(=O)O` (centres unmarked) [Compound 1115], the IC50 fell in the range of 0.5 to 5 µM.

`O=C(Nc1ccc(Oc2ccccc2)cc1)C1C(c2ccc(Cl)c(Cl)c2)OC2(C(=O)c3ccccc3C2=O)C1C(=O)O` (centres unmarked) [Compound 1049] came in with an IC50 of 0.5 to 5 µM.

As for `CC(=O)c1ccc(N2C(=O)C3C(c4ccc(Cl)cc4)OC4(C(=O)c5ccccc5C4=O)C3C2=O)cc1` (centres unmarked) [Compound 2003], the IC50 lay within 5 to 50 µM.

Compound `Cc1ccc2c(c1)C(=O)C1(OC(c3ccc(Br)c(Br)c3)C(C(=O)Nc3ccc(N4CCOCC4)cc3)C1C(=O)O)C2=O` (single isomer, unassigned) [Compound A1014] came in with a half-maximal inhibitory concentration (IC50) of less than 0.5 µM.

Consider `Cc1ccc(C2OC3(C(=O)c4ccccc4C3=O)C(C(=O)O)C2C(=O)Nc2ccc3c(c2)OCO3)cc1C` (centres unmarked) [Compound 1024], for which the IC50 is 0.5 to 5 µM.

With `O=C(NC1CC1c1ccccc1)C1C(c2ccc(Cl)c(Cl)c2)OC2(C(=O)c3ccccc3C2=O)C1C(=O)O` (centres unmarked) [Compound 1058], the half-maximal inhibitory concentration (IC50) fell in the range of 0.5 to 5 µM.

`CC(=O)c1ccc(NC(=O)C2C(C=C(C)c3ccccc3)OC3(C(=O)c4ccccc4C3=O)C2C(=O)O)cc1` (racemic) [Compound 4008]: the half-inhibitory concentration (IC50) was in the range of 5 to 50 µM.

For the compound `Cc1ccc(NC(=O)C2C(c3ccc(Cl)c(Cl)c3)OC3(C(=O)c4ccccc4C3=O)C2C(=O)O)cc1` (centres unmarked) [Compound 1065], the IC50 was in the range of 0.5 to 5 µM.

The compound `O=C(Nc1ccccc1Cl)C1C(c2ccc(Cl)cc2)OC23C(=O)c4ccccc4C2(O)OC(=O)C13` (racemic) [Compound 3006] registered an IC50 of 5 to 50 µM.

Compound `CC(=O)c1ccc(N2C(=O)C3C(c4ccc(Cl)c(Cl)c4)OC4(C(=O)c5ccccc5C4=O)C3C2=O)cc1` (racemic) [Compound 2016] had a concentration for half-maximal inhibition (IC50) of 0.5 to 5 µM.

Consider `O=C1C2C(c3ccc(Cl)cc3)OC3(C(=O)c4ccccc4C3=O)C2C(=O)N1c1ccc2c(c1)OCO2` (centres unmarked) [Compound 2001], for which the IC50 lay in the range of 5 to 50 µM.
